Experimental findings from patent US20250228239A1, “MOLECULES HAVING PESTICIDAL UTILITY, AND INTERMEDIATES, COMPOSITIONS, AND PROCESSES, RELATED THERETO” (priority 2024, published 2025) are described below.

Assay type in all cases: in vivo
Data set [1] relates to Beet Armyworm (Spodoptera exigua, LAPHEG). As to the kind of experiment: Bioassays on Beet Armyworm (BAW), 128-well diet tray assay. The settings on record: Spodoptera exigua. The method, boiled down:
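Mortality of second-instar larvae (1–5/well) on artificial diet treated with 50 μg/cm^2 compound, read after 5–7 days at 25° C.; values are means of eight wells.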

In data set [2] the test system is Cabbage Looper (Trichoplusia ni, TRIPNI). Description: Bioassays on Cabbage Looper (CL), 128-well diet tray assay. The settings on record: Trichoplusia ni. In a few lines: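 Test molecule was dissolved in 90:10 acetone-water, applied to artificial diet at 50 μg/cm^2 and allowed to dry. Second-instar larvae were then added, one to five per well, and trays held at 25° C for five to seven days before mortality was scored and averaged.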

Data set [3] has as its system Yellow Fever Mosquito (Aedes aegypti, AEDSAE). The settings on record: for YFM rating: Table ABC / ABC-DP rating. In a few lines:
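Compounds from 4000 ppm DMSO stocks were diluted in 90:10 water/acetone and dispensed into wells, then infested with about 1-day-old larvae in liver-powder water. Covered plates were held at room temperature for 3 days and each well was scored for mortality against a rating scale; six replicate plates per compound.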

[4] abbreviates: Beet Armyworm, Table ABC / ABC-DP rating, read-out: BAW rating.
The mark [5] stands for this setting: Cabbage Looper, Table ABC / ABC-DP rating, read-out: CL rating.
The mark [6] stands for this setting: Table ABC: Biological Results, species BAW, read-out: BAW.
Setting [7] is: Table ABC: Biological Results, species CL, read-out: CL.
[8] abbreviates: Table ABC: Biological Results, species YFM.

Structures are written as SMILES. Where two headings read alike, the source gives them in different places.

As for `O=C(Nc1c(F)ccc(NC(=O)c2cc(NC(=O)[C@H]3[C@H](c4ccc(F)c(C(F)(F)F)c4)C3(Cl)Cl)ccc2Cl)c1F)c1ccn(CC(F)(F)F)n1` [F1819, N-(3-(2-Chloro-5-((1R,3R)-2,2-dichloro-3-(4-fluoro-3-(trifluoromethyl)phenyl)cyclopropane-1-carboxamido)benzamido)-2,6-difluorophenyl)-1-(2,2,2-trifluoroethyl)-1H-pyrazole-3-carboxamide], the pest or weed control at 50 µg/cm2 in data set [1] (setting [4]) and in data set [2] (setting [5]) was 50 to 100% in each case. The YFM rating result in data set [3] (Yellow Fever Mosquito) is reported as “A (80–100)”.

As a reminder, the mortality is the percentage killed. As to `O=C(NN=Cc1ccccc1)c1cc(NC(=O)C2C(c3cc(Cl)cc(Cl)c3)C2(Cl)Cl)ccc1Cl` (stereo not drawn) [F3001, trans-N-(3-(2-Benzylidenehydrazine-1-carbonyl)-4-chiorophenyl)-2,2-dichloro-3-(3,5-dichlorophenyl)cyclopropane-1-carboxamide], the mortality at 50 µg/cm2 in data set [1] (168 h, second instar larvae, 50 μg/cm^2 of test molecule on artificial diet, 25° C., five to seven days, average of eight wells, read-out: BAW % Control (or Mortality) rating) fell in the range of 50 to 100%; in data set [2] (168 h, second instar larvae, 50 μg/cm^2 of test molecule on artificial diet, 25° C., five to seven days, average of eight wells, read-out: CL % Control (or Mortality) rating), 50 to 100%. Moreover, the pest or weed control at 50 µg/cm2 in data set [1] (setting [4]) and in data set [2] (setting [5]) was 50 to 100% in each case. The YFM rating entry in data set [3] (Yellow Fever Mosquito) is “A (80–100)”. For the same molecule, the “YFM % Control (or Mortality) rating” value in data set [3] (about 1 day-old larvae, 4000 ppm master solution diluted with 90:10 water/acetone, 15 μL per well plus 220 μL larval mixture, 3 days, mortality) was “A (80–100)”.

Consider `CN(NC(=O)c1cc(NC(=O)[C@H]2[C@H](c3cc(Cl)cc(Cl)c3)C2(Cl)Cl)ccc1Cl)C(=O)CC1CC1` (relative stereo) [F2524, trans-2,2-Dichloro-N-(4-chloro-3-(2-(2-cyclopropylacetyl)-2-methylhydrazine-1-carbonyl)phenyl)-3-(3,5-dichlorophenyl)cyclopropane-1-carboxamide], for which the pest or weed control at 50 µg/cm2 in data set [1] (setting [4]) and in data set [2] (setting [5]) was 50 to 100% each time. In addition, in data set [3] (Yellow Fever Mosquito), the YFM rating result was “A (80–100)”.

Consider `O=C(NCC(F)(F)F)c1cc(NC(=O)[C@H]2[C@H](c3cc(C(F)(F)F)cc(Cl)c3F)C2(Cl)Cl)ccc1Cl` (relative stereo) [F2012, trans-2-Chloro-5-(2,2-dichloro-3-(3-chloro-2-fluoro-5-(trifluoromethyl)phenyl)cyclopropane-1-carboxamido)-N-(2,2,2-trifluoroethyl)benzamide], for which the pest or weed control at 50 µg/cm2 in data set [1] (setting [4]) and in data set [2] (setting [5]) was 50 to 100% throughout. For the same molecule, the YFM rating entry in data set [3] (Yellow Fever Mosquito) is reported as “A (80–100)”.

On to `O=C(NNC(=S)Nc1ccccc1)c1cc(NC(=O)[C@H]2[C@H](c3cc(Cl)cc(Cl)c3)C2(Cl)Cl)ccc1Cl` (relative stereo) [F2541, trans-2,2-Dichloro-N-(4-chloro-3-(2-(phenylcarbamothioyl)hydrazine-1-carbonyl)phenyl)-3-(3,5-dichlorophenyl)cyclopropane-1-carboxamide], for which the pest or weed control at 50 µg/cm2 in data set [1] (setting [4]) and in data set [2] (setting [5]) was 50 to 100% in each case. Besides, the YFM rating entry in data set [3] (Yellow Fever Mosquito) is on record as “A (80–100)”.

For the molecule `CC(F)(F)C(=O)Nc1c(F)ccc(NC(=O)c2cc(NC(=O)[C@H]3[C@H](c4ccc(F)c(C(F)(F)F)c4)C3(Cl)Cl)ccc2Cl)c1F` [F1352, 2-Chloro-5-((1R,3R)-2,2-dichloro-3-(4-fluoro-3-(trifluoromethyl)phenyl)cyclopropane-1-carboxamido)-N-(3-(2,2-difluoropropanamido)-2,4-difluorophenyl)benzamide], the pest or weed control at 50 µg/cm2 in data set [1] (setting [6]) and in data set [2] (setting [7]) was 50 to 100% throughout. For the same molecule, the YFM result in data set [3] (setting [8]) is recorded as “A (80–100)”.

Consider `O=C(NCCNC(=O)C(F)(F)C(F)(F)F)c1cc(NC(=O)[C@H]2[C@H](c3cc(Cl)cc(Cl)c3)C2(Cl)Cl)ccc1Cl` (relative stereo) [F2096, trans-2-Chloro-5-(2,2-dichloro-3-(3,5-dichlorophenyl)cyclopropane-1-carboxamido)-N-(2-(2,2,3,3,3-pentafluoropropanamido)ethyl)benzamide], for which the pest or weed control at 50 µg/cm2 in data set [1] (setting [4]) and in data set [2] (setting [5]) was 50 to 100% each time. Also, in data set [3] (Yellow Fever Mosquito), the YFM rating entry is reported as “B (More than 0 – Less than 80)”.

On to `C=CCC(=O)Nc1c(F)ccc(NC(=O)c2cc(NC(=O)[C@H]3[C@H](c4cccc(C(F)(F)F)c4)C3(Cl)Cl)ccc2Cl)c1F` [F1878, N-(3-(But-3-enamido)-2,4-difluorophenyl)-2-chloro-5-((1R,3R)-2,2-dichloro-3-(3-(trifluoromethyl)phenyl)cyclopropane-1-carboxamido)benzamide], for which the pest or weed control at 50 µg/cm2 in data set [1] (setting [4]) and in data set [2] (setting [5]) was 50 to 100% each time. Besides, in data set [3] (Yellow Fever Mosquito), the YFM rating result was “A (80–100)”.

Consider `CC(=O)Nc1ccc(NC(=O)c2cc(NC(=O)[C@H]3[C@H](c4ccc(F)c(Cl)c4)C3(Cl)Cl)cc(F)c2Cl)cc1` (relative stereo) [F1154, trans-N-(4-Acetamidophenyl)-2-chloro-5-(2,2-dichloro-3-(3-chloro-4-fluorophenyl)cyclopropane-1-carboxamido)-3-fluorobenzamide], for which the pest or weed control at 50 µg/cm2 in data set [1] (setting [6]) and in data set [2] (setting [7]) was 50 to 100% throughout. Further, the YFM result in data set [3] (setting [8]) is recorded as “A (80–100)”.

For `O=C(NNc1ccc(Cl)cn1)c1cc(NC(=O)[C@H]2[C@H](c3cc(Cl)cc(Cl)c3)C2(Cl)Cl)ccc1Cl` (relative stereo) [F2504, trans-2,2-Dichloro-N-(4-chloro-3-(2-(5-chloropyridin-2-yl)hydrazine-1-carbonyl)phenyl)-3-(3,5-dichlorophenyl)cyclopropane-1-carboxamide], the pest or weed control at 50 µg/cm2 in data set [1] (setting [4]) and in data set [2] (setting [5]) was 50 to 100% in each case. For the same molecule, in data set [3] (Yellow Fever Mosquito), the YFM rating entry is reported as “A (80–100)”.

`O=C(Nc1ccc(F)cc1F)c1cc(NC(=O)[C@H]2[C@@H](c3cc(F)c(F)c(Br)c3)C2(Cl)Cl)ccc1Cl` (relative stereo) [F1012, cis-5-(3-(3-Bromo-4,5-difluorophenyl)-2,2-dichlorocyclopropane-1-carboxamido)-2-chloro-N-(2,4-difluorophenyl)benzamide]: the pest or weed control at 50 µg/cm2 in data set [1] (setting [6]) and in data set [2] (setting [7]) was 50 to 100% in each case. For the same molecule, the YFM result in data set [3] (setting [8]) was “A (80–100)”.

On to `CC(F)(F)C(=O)Nc1c(F)ccc(NC(=O)c2cc(NC(=O)[C@H]3[C@H](c4ccc(Cl)c(Cl)c4)C3(Cl)Cl)ccc2Cl)c1F` [F1249, 2-Chloro-5-((1R,3R)-2,2-dichloro-3-(3,4-dichlorophenyl)cyclopropane-1-carboxamido)-N-(3-(2,2-difluoropropanamido)-2,4-difluorophenyl)benzamide], for which the pest or weed control at 50 µg/cm2 in data set [1] (setting [6]) and in data set [2] (setting [7]) was 50 to 100% throughout. Besides, the YFM result in data set [3] (setting [8]) is “A (80–100)”.

Take `O=C(Nc1ccc(F)c(NC(=O)C2CC(F)(F)C2(F)F)c1F)c1cc(NC(=O)[C@H]2[C@H](c3ccc(F)c(C(F)(F)F)c3)C2(Cl)Cl)ccc1Cl` (stereo partly drawn) [F1481, 2-Chloro-5-((1R,3R)-2,2-dichloro-3-(4-fluoro-3-(trifluoromethyl)phenyl)cyclopropane-1-carboxamido)-N-(2,4-difluoro-3-(2,2,3,3-tetrafluorocyclobutane-1-carboxamido)phenyl)benzamide]: the pest or weed control at 50 µg/cm2 in data set [1] (Beet Armyworm, rating class, read-out: BAW) fell in the range of 50 to 100%; in data set [2] (Cabbage Looper, rating class, read-out: CL), 50 to 100%. Also, the YFM entry in data set [3] (Yellow Fever Mosquito, rating class) is given as “A (80–100)”.

With `O=C(NCCC(F)(F)F)c1cc(NC(=O)[C@H]2[C@H](c3ccc(F)c(Cl)c3)C2(Cl)Cl)cc(C(F)(F)F)c1Cl` (relative stereo) [F2055, trans-2-Chloro-5-(2,2-dichloro-3-(3-chloro-4-fluorophenyl)cyclopropane-1-carboxamido)-3-(trifluoromethyl)-N-(3,3,3-trifluoropropyl)benzamide], the pest or weed control at 50 µg/cm2 in data set [1] (setting [4]) and in data set [2] (setting [5]) was 50 to 100% in each case. Further, in data set [3] (Yellow Fever Mosquito), the YFM rating result is “A (80–100)”.
